Reference: patent publication US8183252B2, “Heterocyclic aspartyl protease inhibitors” (Schering Corporation, priority 2007, dated 2012)

Molecular target: T1, human BACE1 (sproBACE1) (Homo sapiens, UniProt P56817)
T1 construct: sBACE1, corresponding to amino acids 1-454; made in house; host or cells: Sf9 insect cells (baculovirus), secreted into the medium
Test: BACE-1 Peptide Hydrolysis Assay (HTRF)
Assay type: biochemical
Settings: read-out: BACE-1 Ki
Text: A HindIII/PmeI fragment from pCDNA4-sBACE1myc/His was blunt ended using Klenow and subcloned into the Stu I site of PFASTBACI(A) (Invitrogen). A sBACE1mycHis recombinant bacmid was generated by transposition in DH10Bac cells (GIBCO/BRL). Subsequently, the sBACE1mycHis bacmid construct was transfected into sf9 cells using CellFectin (Invitrogen, San Diego, Calif.) in order to generate recombinant baculovirus. […] Five milliliters of high titer plaque purified sBACEmyc/His virus was used to infect 1 L of logarithmically growing sf9 cells for 72 hours. Intact cells were pelleted by centrifugation at 3000×g for 15 minutes. The supernatant, containing secreted sBACE1, was collected and diluted 50% v/v with 100 mM HEPES, pH 8.0. The diluted medium was loaded onto a Q-sepharose column. The Q-sepharose column was washed with Buffer A (20 mM HEPES, pH 8.0, 50 mM NaCl).
Proteins, were eluted from the Q-sepharose column with Buffer B (20 mM HEPES, pH 8.0, 500 mM NaCl). The protein peaks from the Q-sepharose column were pooled and loaded onto a Ni-NTA agarose column. The Ni-NTA column was then washed with Buffer C (20 mM HEPES, pH 8.0, 500 mM NaCl). Bound proteins were then eluted with Buffer D (Buffer C+250 mM imidazole).
Reactions were initiated by addition of substrate in a 5 μl aliquot resulting in a total volume of 25 μl. After 3 hr at 30° C. reactions were terminated by addition of an equal volume of 2× stop buffer containing 50 mM Tris-HCl pH 8.0, 0.5 M KF, 0.001% Brij-35, 20 μg/ml SA-XL665 (cross-linked allophycocyanin protein coupled to streptavidin; CIS-Bio International, France) (0.5 μg/well). Plates were shaken briefly and spun at 1200×g for 10 seconds to pellet all liquid to the bottom of the plate before the incubation.
Y=Bottom+(Top-Bottom)/(1+10^((LogEC50−X)*Hill Slope)); X is the logarithm of concentration of I, Y is the percent change in ratio and Y starts at bottom and goes to top with a sigmoid shape.

T1 sequence (P56817 22-454): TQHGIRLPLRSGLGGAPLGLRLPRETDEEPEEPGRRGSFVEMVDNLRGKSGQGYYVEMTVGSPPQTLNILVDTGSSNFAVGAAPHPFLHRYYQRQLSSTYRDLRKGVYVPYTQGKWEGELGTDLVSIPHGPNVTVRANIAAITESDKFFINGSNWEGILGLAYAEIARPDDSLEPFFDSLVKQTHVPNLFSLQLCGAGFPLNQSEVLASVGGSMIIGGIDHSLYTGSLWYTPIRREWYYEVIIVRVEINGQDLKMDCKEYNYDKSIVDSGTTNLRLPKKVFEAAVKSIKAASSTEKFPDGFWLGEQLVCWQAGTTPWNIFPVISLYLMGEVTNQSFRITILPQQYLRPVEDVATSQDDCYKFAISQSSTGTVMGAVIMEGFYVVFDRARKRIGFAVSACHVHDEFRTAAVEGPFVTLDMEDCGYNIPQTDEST

Ki, < 5 µM:
CN1OCC(C)(c2cc(-c3cccc(C#N)c3)cs2)NC1=N (stereo not shown)
CN1C(=N)NC(C)(c2cccc(N3CCC(C#N)C3)c2)CC1=O (stereo not shown)
COCC1CCCN1C(=O)c1cccc(CN2C(=N)NC(C)(c3cccc(-c4cccc(Cl)c4)c3)C2=O)c1 (stereo not shown)
COCC1CCCN1C(=O)c1cncc(CN2C(=N)NC(c3ccccc3)(C3CC3)C2=O)c1 (stereo not shown)
N=C1NC(c2ccccc2)(c2ccccc2)C(=O)N1CC1CCN(C(=O)Nc2cccc(F)c2)CC1
Cc1c(-c2ccc(F)c(C#N)c2)csc1[C@]1(C)CC(=O)N(C)C(=N)N1
CN1C(=N)NC(CCc2ccccc2)(CC2CCCC(Nc3ccccn3)C2)C1=O (stereo not shown)
CN1C(=N)N[C@](CCc2ccccc2)(C[C@H]2CCC[C@@H](Nc3ccccc3)C2)C1=O
Cc1ccc(CN2C(=N)NC(c3ccccc3)(c3ccccc3)C2=O)cc1
CN1C(=N)N[C@](C)(C[C@H]2CCC[C@@H](Nc3ccc4ccccc4n3)C2)C1=O
N=C1NC(c2ccccc2)(c2ccccc2)C(=O)N1Cc1ccsc1
N=C1NC(c2ccccc2)(c2ccccc2)C(=O)N1CC1CCOCC1
CN1C(=N)N[C@](C)(c2cc(-c3cc(Br)cc(C#N)c3)cs2)CC1=O
CN1C(=N)N[C@](C)(c2cc(-c3cc(Cl)cc(C#N)c3)cs2)[C@H](C2CC2)C1=O
CN1C(=N)N[C@](C)(c2cc(-c3cc(F)cc(C#N)c3)nn2C)CC1=O
CN1C(=N)N[C@](C)(c2cc(-c3cccc(C#N)c3)c(Br)s2)CC1=O
CCc1sc([C@@]2(C)NC(=N)N(C)C(=O)[C@@H]2CC)cc1-c1cccc(C#N)c1
CN1C(=N)NC(C)(c2cc(-c3cccc(C#N)c3)cs2)C(CC=Cc2cccc(F)c2)C1=O (stereo not shown)
CN1C(=N)N[C@](C)(c2cnc(-c3cccc(C#N)c3)s2)CC1=O
CN1C(=N)NC(C)(c2cc(-c3cccc(C#N)c3)cs2)C(CCN2CCCCC2)C1=O (stereo not shown)
CN1C(=N)NC(C)(c2cc(-c3cccc(C#N)c3)cs2)C(CCCc2ccccc2)(n2cccn2)C1=O (stereo not shown)
CCC[C@H]1C(=O)N(C)C(=N)N[C@]1(C)c1cc(-c2cccc(C#N)c2)cs1
C[C@@]1(c2cc(-c3cccc(C#N)c3)cs2)CC(=O)N(Cc2ccncc2)C(=N)N1
CC1(c2cccc(-c3cccc(Cl)c3)c2)NC(=N)N(CC2CCN(S(C)(=O)=O)C2)C1=O (stereo not shown)
C=C1C(=O)N(C)C(=N)N[C@]1(C)c1cccc(-c2cccc(C#N)c2)c1
CCC[C@H]1C(=O)N(C)C(=N)N[C@]1(C)c1cccc(-c2cccc(C#N)c2)c1
CN1C(=N)N[C@](C)(c2scc(C#N)c2Cl)CC1=O
Cc1cccc(-c2cccc(C3(C4CC4)NC(=N)N(C)C3=O)c2)n1 (stereo not shown)
COc1cncc(-c2csc(C3(C4CC4)NC(=N)N(C)C3=O)c2)c1 (stereo not shown)
CN1C(=N)N[C@](C)(c2cc(Br)c(-c3cncc(C#N)c3)s2)CC1=O
CC(C)C1(c2cccc(Br)c2)NC(=N)N(C)C1=O (stereo not shown)
CN1C(=N)NC(c2cccc(-c3cncc(Br)c3)c2)(C2(C)CC2)C1=O (stereo not shown)
CN1C(=N)NC(c2ccccc2)(c2cccc(-c3cccc(CO)c3)c2)C1=O (stereo not shown)
CN1C(=N)NC(c2ccc(-c3ccc(F)c(C#N)c3)s2)(C2CC2)CC1=O (stereo not shown)
CN1C(=N)NC(C)(c2cc(-c3ccc(F)c(C#N)c3)cs2)C(Br)C1=O (stereo not shown)
CN1C(=N)N[C@](C)(c2cc(-c3ccc(F)c(C#N)c3)cs2)[C@H](C2CCC2)C1=O
CN1C(=N)N[C@](C)(c2cc(-c3cncc(C#N)c3)cs2)[C@H](C2CCC2)C1=O
CN1C(=N)N[C@](C)(c2cc(-c3cc(C#N)cc(C#N)c3)cs2)CC1=O
CN1C(=N)N[C@](C)(c2cc(C#N)cs2)[C@@H](c2ccc(C3CC3)cc2)C1=O
CN1C(=N)NC(C)(c2cccc(-c3cc(Cl)ccc3CCO)c2)C1=O (stereo not shown)
CN1C(=N)NC(C)(c2cccc(-c3cc(Cl)ccc3CCOC=O)c2)C1=O (stereo not shown)
CN1C(=N)N[C@@](c2cccc(-c3cccnc3F)c2)(C2CC2)C1=O
CN1C(=N)N[C@@](c2cccc(-c3cccc(CO)c3)c2)(C2CC2)C1=O
CN1C(=N)N[C@](C)(c2ccc(-c3cccc(C(F)(F)F)c3)s2)[C@@H](C2CC2)C1=O
CN1C(=N)N[C@](CCC2CCCCC2)(C[C@H]2CCC[C@H](N[C@H]3CCNC3=O)C2)C1=O
CN1C(=N)N[C@](CCC2CCCCC2)(C[C@H]2CCC[C@H](NCCc3ccccc3)C2)C1=O
CN1C(=N)N[C@](C)(c2ccnc(-c3cccnc3F)c2)[C@@H](c2ccc(C3CC3)cc2)C1=O
CN1C(=N)N[C@@](CCC2CCCCC2)(C[C@H]2CCC[C@@H](Nc3ccc4cccc(Cl)c4n3)C2)C1=O
C[C@@]1(c2ccc3sccc3c2)CC(=O)N(CCO)C(=N)N1
CN1C(=N)N[C@](C)(c2ccc3nn(CC4CCCCC4)cc3c2)CC1=O
CN1C(=N)N[C@](C)(c2ccc(F)cc2F)[C@@H](c2ccc(N3CCCS3(=O)=O)cc2)C1=O
CN1C(=N)N[C@](C)(c2c(F)cccc2F)[C@@H](c2ccc(C(F)(F)F)cc2)C1=O
CN1C(=N)N[C@](C)(c2ccc3c(c2)c(Br)cn3C)CC1=O
CN1C(=N)N[C@](C)(c2sccc2Cl)CC1=O
CCc1csc([C@]2(C)CC(=O)N(C)C(=N)N2)c1
CC(C)Oc1cc(Cl)cc(-c2csc([C@]3(C)CC(=O)N(C)C(=N)N3)c2)c1
CN1C(=N)N[C@](C)(c2cc(-c3ccc(Cl)s3)cs2)CC1=O
CN1C(=N)N[C@](C)(c2ncc(-c3cccc(Cl)c3)s2)CC1=O
COc1ccc(Cl)c(-c2cc([C@]3(C)CC(=O)N(C)C(=N)N3)cc3ccsc23)c1
COCCN1C(=N)N[C@](C)(c2ccc3sccc3c2)CC1=O
CC(C)CC(=O)Nc1cccc(CN2C(=N)NC(c3ccccc3)(c3ccccc3)C2=O)c1
N=C1NC(c2ccccc2)(c2ccccc2)C(=O)N1Cc1cccc(NC(=O)CC2CCCC2)c1
COc1cccc(-c2cccc(C3(C)CON(C)C(=N)N3)c2)c1 (stereo not shown)
CC(=O)N[C@@H]1CCC[C@H](C[C@@]2(CCc3ccccc3)NC(=N)N(C)C2=O)C1
COc1ccccc1C(=O)N[C@@H]1CCC[C@H](C[C@@]2(CCC3CCCCC3)NC(=N)N(C)C2=O)C1
CN1C(=N)N[C@](CCC2CCCCC2)(C[C@H]2CCC[C@@H](NC(=O)c3ccc4ccccc4n3)C2)C1=O
CN1C(=N)NC(C)(c2cccc(-c3cc(Cl)ccc3CNC(=O)c3ccnnc3)c2)C1=O (stereo not shown)
CN1C(=N)N[C@](C)(c2cccc(N3CCCC3)c2)CC1=O
CN1C(=N)N[C@](C)(c2cccc(N3CCCCC3)c2)CC1=O
CN1C(=N)N[C@](C)(c2cc(-c3cccnc3)c3sccc3c2)CC1=O
COc1ccc([C@H]2C(=O)N(C)C(=N)N[C@]2(C)c2cncs2)cc1
CN1C(=N)N[C@](C)(c2cnn(-c3cccc(I)c3)c2)CC1=O
CCC[C@H]1C(=O)N(C)C(=N)N[C@]1(C)c1cccc(I)c1
